Reference: the supplement of paper PMC10307832

What was measured:
Assay in all cases: relative viability (nuclei count vs DMSO), 5 days (fraction); higher = more cells survive
[1] = compound: CC[C@H](CO)Nc1nc(NCc2ccccc2)c2ncn(C(C)C)c2n1 [Seliciclib] + C[C@]1(O)C[C@@H](c2nc(-c3ccc4ccc(-c5ccccc5)nc4c3)c3c(N)nccn32)C1 [Linsitinib] (partner 1 µM)
In short: (§1)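 Medians of duplicate plates are given as relative viability. That measure is the nuclei count in treated wells divided by the count in vehicle wells. Counts were taken on 4× images of lung cancer cell lines in 1536-well plates, 5 days after pin-tool dosing the day after seeding with one drug alone or a fixed anchor-drug dose plus five library-drug doses (not always all listed) in √10 steps.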

[2] = compound: CC[C@H](CO)Nc1nc(NCc2ccccc2)c2ncn(C(C)C)c2n1 [Seliciclib] + CS(=O)(=O)CCNCc1ccc(-c2ccc3ncnc(Nc4ccc(OCc5cccc(F)c5)c(Cl)c4)c3c2)o1 [Lapatinib] (partner 2 µM)
In short: as §1

[3] = compound: CC[C@H](CO)Nc1nc(NCc2ccccc2)c2ncn(C(C)C)c2n1 [Seliciclib] + COc1cccc2cc(-c3nc([C@H]4CC[C@H](C(=O)O)CC4)n4ncnc(N)c34)[nH]c12 [OSI-027] (partner 0.5 µM)
In short: as §1

[4] = compound: CC[C@H](CO)Nc1nc(NCc2ccccc2)c2ncn(C(C)C)c2n1 [Seliciclib] + Cc1nc(NC(=O)N2CCC[C@H]2C(N)=O)sc1-c1ccnc(C(C)(C)C(F)(F)F)c1 [Alpelisib] (partner 2 µM)
In short: as §1

Cell Line | relative viability ([1]; first compound 0.08 µM) | relative viability ([1]; first compound 0.253 µM) | relative viability ([1]; first compound 0.8 µM) | relative viability ([1]; first compound 2.53 µM) | relative viability ([1]; first compound 8 µM) | relative viability ([2]; first compound 0.08 µM) | relative viability ([2]; first compound 0.253 µM) | relative viability ([2]; first compound 0.8 µM) | relative viability ([2]; first compound 2.53 µM) | relative viability ([2]; first compound 8 µM) | relative viability ([3]; first compound 0.08 µM) | relative viability ([3]; first compound 0.253 µM) | relative viability ([3]; first compound 0.8 µM) | relative viability ([3]; first compound 2.53 µM) | relative viability ([3]; first compound 8 µM) | relative viability ([4]; first compound 0.08 µM) | relative viability ([4]; first compound 0.253 µM) | relative viability ([4]; first compound 0.8 µM) | relative viability ([4]; first compound 2.53 µM) | relative viability ([4]; first compound 8 µM)
201T | 1.04 | 1.07 | 0.994 | 1.05 | 0.982 | 1.08 | 1.07 | 1 | 0.952 | 0.843 | 0.815 | 0.708 | 0.857 | 0.467 | 0.688 | 1.01 | 1.02 | 0.997 | 0.997 | 0.966
A549 | 0.599 | 0.473 | 0.434 | 0.651 | 0.446 | 1 | 0.913 | 0.991 | 0.981 | 0.623 | – | – | – | – | – | 0.763 | 0.67 | 0.696 | 0.656 | 0.458
A-427 | 1.08 | 1.11 | 1.2 | 1.15 | 1.13 | 1.03 | 1.08 | 1.13 | 1.02 | 1.01 | 0.419 | 0.615 | 0.442 | 0.331 | 0.401 | 1.05 | 1.16 | 1.12 | 1.08 | 0.927
ABC-1 | 0.919 | 0.806 | 0.918 | 0.957 | 1.04 | 1.18 | 1.06 | 1.19 | 1.17 | 0.894 | 0.611 | 0.378 | 0.431 | 0.32 | 0.387 | 0.819 | 0.888 | 0.775 | 0.964 | 0.931
BEN | 1.16 | – | 0.852 | 1.07 | 0.786 | 0.826 | 0.525 | 0.772 | 0.677 | 0.629 | 0.295 | 0.287 | 0.343 | 0.309 | 0.276 | 1.13 | – | 0.844 | 1.12 | 0.862
CAL-12T | 0.87 | 0.977 | 0.744 | 0.742 | 0.673 | 0.619 | 0.793 | 0.551 | 0.67 | 0.276 | 0.746 | 0.504 | 0.763 | 0.321 | 0.357 | 1.11 | – | 0.86 | 1 | 0.946
COR-L23 | 0.873 | 0.84 | 0.922 | 1.11 | 0.684 | 0.921 | 1.14 | 0.929 | 1.12 | 0.87 | 0.808 | 0.604 | 0.7 | 0.671 | 0.627 | 0.708 | 0.868 | 0.764 | 0.78 | 0.538
Calu-6 | 1.05 | 0.996 | 0.95 | 1.01 | 0.899 | 0.993 | 1.13 | 1.08 | 1.08 | 0.934 | – | – | – | – | – | 0.942 | 0.993 | 1.04 | 1.01 | 0.809
ChaGo-K-1 | – | – | – | – | – | – | – | – | – | – | 0.663 | 0.367 | 0.587 | 0.356 | 0.451 | – | – | – | – | –
EBC-1 | 0.911 | 0.836 | 0.942 | 0.88 | 0.794 | 0.25 | 0.225 | 0.251 | 0.23 | 0.227 | – | – | – | – | – | 0.901 | 0.88 | 0.895 | 0.828 | 0.616
IA-LM | 0.644 | 0.793 | 0.602 | 0.709 | 0.611 | 0.537 | 1.07 | 0.719 | 0.977 | 0.82 | – | – | – | – | – | 0.645 | 0.935 | 0.599 | 0.979 | 0.556
LCLC-103H | 1.17 | 0.973 | 1.02 | 1.02 | 0.849 | – | – | – | – | – | 0.452 | 0.47 | 0.456 | 0.319 | 0.487 | 0.992 | 0.957 | 0.869 | 1.05 | 0.906
NCI-H441 | 0.699 | 0.545 | 0.45 | 0.572 | 0.442 | – | – | – | – | – | 0.794 | 0.582 | 0.645 | 0.335 | 0.423 | 0.631 | 0.584 | 0.776 | 0.754 | 0.51
NCI-H522 | – | – | – | – | – | – | – | – | – | – | 0.818 | 0.63 | 0.685 | 0.623 | 0.644 | – | – | – | – | –
NCI-H1299 | 0.981 | 1.14 | 1.09 | 0.956 | 1 | 0.953 | 1.06 | 0.997 | 0.962 | 0.948 | – | – | – | – | – | 1.02 | 1.17 | 1.1 | 1.08 | 0.986
NCI-H1648 | – | – | – | – | – | – | – | – | – | – | 0.273 | 0.313 | 0.281 | 0.251 | 0.259 | – | – | – | – | –
NCI-H1650 | – | – | – | – | – | 0.769 | 0.889 | 0.725 | 0.621 | 0.347 | 0.842 | 0.518 | 0.641 | 0.487 | 0.443 | – | – | – | – | –
NCI-H1703 | 0.675 | 0.869 | 0.767 | 0.989 | 0.712 | 1.07 | 0.861 | 1.03 | 1.14 | 0.846 | – | – | – | – | – | 0.322 | 0.421 | 0.288 | 0.354 | 0.229
NCI-H2170 | – | – | – | – | – | 0.272 | 0.274 | 0.269 | 0.259 | 0.268 | 0.754 | 0.639 | 0.724 | 0.691 | 0.708 | 0.801 | 0.585 | 0.824 | 0.904 | 0.834
NCI-H2342 | – | – | – | – | – | – | – | – | – | – | 0.565 | 0.657 | 0.581 | 0.505 | 0.574 | – | – | – | – | –
SW 900 | – | – | – | – | – | – | – | – | – | – | 0.59 | 0.396 | 0.62 | 0.45 | 0.397 | – | – | – | – | –
